Laboratory results from the NIST ThermoML archive (doi:10.1021/je900691n).

Assay: xn = mol fraction of the nth substance listed
Conditions: Liquid, Pycnometric method

COC(=O)OC [dimethyl carbonate] + O=C=O
mass density [kg/m3]
Conditions | 308.15 K | 313.15 K
6160 kPa, x1 = 0.1484 | 926 | –
6420 kPa, x1 = 0.118 | 904 | –
6750 kPa, x1 = 0.086 | 864 | –
6760 kPa, x1 = 0.1484 | 931 | –
6780 kPa, x1 = 0.1484 | – | 905
6900 kPa, x1 = 0.118 | 909 | –
7020 kPa, x1 = 0.118 | – | 880
7160 kPa, x1 = 0.0481 | 787 | –
7260 kPa, x1 = 0.1484 | 936 | –
7280 kPa, x1 = 0.1484 | – | 909
7340 kPa, x1 = 0.086 | – | 834
7500 kPa, x1 = 0.118 | – | 886
7520 kPa, x1 = 0.0242 | 697 | –
7620 kPa, x1 = 0.0481 | 800 | –
7630 kPa, x1 = 0.0242 | 705 | –
7680 kPa, x1 = 0.118 | 917 | –
7730 kPa, x1 = 0.1484 | 939 | –
7780 kPa, x1 = 0.0242 | 718 | –
7780 kPa, x1 = 0.1484 | – | 914
7850 kPa, x1 = 0.0481 | – | 740
7940 kPa, x1 = 0.086 | 881 | –
7990 kPa, x1 = 0.0242 | 731 | –
8050 kPa, x1 = 0.0481 | – | 748
8050 kPa, x1 = 0.118 | – | 893
8200 kPa, x1 = 0.118 | 922 | –
8220 kPa, x1 = 0.0242 | – | 606
8230 kPa, x1 = 0.0242 | 744 | –
8230 kPa, x1 = 0.0481 | 816 | –
8250 kPa, x1 = 0.0242 | – | 613
8250 kPa, x1 = 0.1484 | 943 | –
8260 kPa, x1 = 0.0481 | – | 757
8290 kPa, x1 = 0.0242 | – | 622
8290 kPa, x1 = 0.1484 | – | 918
8350 kPa, x1 = 0.086 | – | 852
8380 kPa, x1 = 0.0242 | – | 636
8480 kPa, x1 = 0.0242 | 755 | –
8490 kPa, x1 = 0.0242 | – | 650
8510 kPa, x1 = 0.0481 | – | 767
8590 kPa, x1 = 0.0242 | – | 665
8730 kPa, x1 = 0.086 | 890 | –
8740 kPa, x1 = 0.0481 | 827 | –
8760 kPa, x1 = 0.0242 | – | 681
8760 kPa, x1 = 0.1484 | – | 922
8780 kPa, x1 = 0.1484 | 947 | –
8790 kPa, x1 = 0.086 | – | 859
8870 kPa, x1 = 0.0242 | 770 | –
8920 kPa, x1 = 0.0242 | – | 692
8930 kPa, x1 = 0.0481 | – | 780
9000 kPa, x1 = 0.118 | – | 903
9030 kPa, x1 = 0.118 | 929 | –
9110 kPa, x1 = 0.0242 | – | 705
9180 kPa, x1 = 0.0242 | 780 | –
9250 kPa, x1 = 0.0481 | 837 | –
9250 kPa, x1 = 0.086 | – | 865
9250 kPa, x1 = 0.1484 | – | 926
9260 kPa, x1 = 0.1484 | 950 | –
9420 kPa, x1 = 0.0242 | – | 721
9480 kPa, x1 = 0.0481 | – | 795
9630 kPa, x1 = 0.0242 | – | 731
9630 kPa, x1 = 0.086 | 900 | –
9640 kPa, x1 = 0.0242 | 792 | –
9650 kPa, x1 = 0.118 | – | 910
9670 kPa, x1 = 0.118 | 935 | –
9690 kPa, x1 = 0.0481 | 844 | –
9720 kPa, x1 = 0.086 | – | 871
9740 kPa, x1 = 0.1484 | 953 | –
9770 kPa, x1 = 0.1484 | – | 930
9920 kPa, x1 = 0.0242 | 799 | –
9960 kPa, x1 = 0.0242 | – | 744
9960 kPa, x1 = 0.0481 | – | 807
10120 kPa, x1 = 0.0481 | 852 | –
10130 kPa, x1 = 0.086 | 905 | 876
10180 kPa, x1 = 0.0242 | 806 | –
10230 kPa, x1 = 0.1484 | 956 | –
10240 kPa, x1 = 0.1484 | – | 934
10280 kPa, x1 = 0.0242 | – | 755
10300 kPa, x1 = 0.118 | – | 916
10420 kPa, x1 = 0.0481 | – | 816
10530 kPa, x1 = 0.0481 | 858 | –
10580 kPa, x1 = 0.0242 | – | 765
10600 kPa, x1 = 0.0242 | 814 | –
10600 kPa, x1 = 0.118 | 942 | –
10740 kPa, x1 = 0.1484 | – | 937
10770 kPa, x1 = 0.1484 | 960 | –
10870 kPa, x1 = 0.086 | – | 885
10930 kPa, x1 = 0.086 | 913 | –
10980 kPa, x1 = 0.0242 | – | 775
11010 kPa, x1 = 0.0242 | 822 | –
11010 kPa, x1 = 0.0481 | – | 827
11010 kPa, x1 = 0.118 | – | 922
11080 kPa, x1 = 0.0481 | 865 | –
11120 kPa, x1 = 0.086 | – | 888
11180 kPa, x1 = 0.118 | 946 | –
11230 kPa, x1 = 0.1484 | 962 | –
11280 kPa, x1 = 0.1484 | – | 941
11290 kPa, x1 = 0.0242 | 828 | –
11340 kPa, x1 = 0.086 | 917 | –
11400 kPa, x1 = 0.0242 | – | 785
11430 kPa, x1 = 0.0481 | – | 834
11500 kPa, x1 = 0.0481 | 871 | –
11550 kPa, x1 = 0.118 | – | 927
11710 kPa, x1 = 0.086 | – | 893
11740 kPa, x1 = 0.0242 | – | 793
11740 kPa, x1 = 0.1484 | 966 | –
11750 kPa, x1 = 0.0242 | 836 | –
11770 kPa, x1 = 0.1484 | – | 944
11800 kPa, x1 = 0.086 | 921 | –
11950 kPa, x1 = 0.0481 | – | 842
12020 kPa, x1 = 0.0242 | 839 | –
12030 kPa, x1 = 0.118 | – | 930
12040 kPa, x1 = 0.0481 | 878 | –
12080 kPa, x1 = 0.0242 | – | 801
12130 kPa, x1 = 0.086 | – | 898
12210 kPa, x1 = 0.086 | 924 | –
12230 kPa, x1 = 0.1484 | 969 | –
12300 kPa, x1 = 0.118 | 954 | –
12330 kPa, x1 = 0.1484 | – | 948
12420 kPa, x1 = 0.0242 | 846 | –
12450 kPa, x1 = 0.0481 | – | 849
12520 kPa, x1 = 0.0242 | – | 809
12530 kPa, x1 = 0.0481 | 883 | –
12700 kPa, x1 = 0.086 | – | 903
12700 kPa, x1 = 0.118 | – | 935
12740 kPa, x1 = 0.1484 | 971 | –
12780 kPa, x1 = 0.0242 | 852 | –
12850 kPa, x1 = 0.086 | 929 | –
12970 kPa, x1 = 0.0481 | 888 | –
13270 kPa, x1 = 0.1484 | 975 | –
13350 kPa, x1 = 0.086 | 934 | –
13660 kPa, x1 = 0.0481 | 895 | –
13820 kPa, x1 = 0.1484 | 978 | –
13850 kPa, x1 = 0.086 | 937 | –
14140 kPa, x1 = 0.086 | 939 | –
14270 kPa, x1 = 0.1484 | 980 | –
14460 kPa, x1 = 0.0481 | 903 | –
14760 kPa, x1 = 0.086 | 944 | –
15030 kPa, x1 = 0.1484 | 984 | –
15060 kPa, x1 = 0.068 | 946 | –
15240 kPa, x1 = 0.0481 | 911 | –
15490 kPa, x1 = 0.068 | 949 | –
15690 kPa, x1 = 0.1484 | 987 | –
16010 kPa, x1 = 0.068 | 953 | –
16350 kPa, x1 = 0.1484 | 990 | –
